Values joined by “and” are separate entries in the source; they are usually repeats but may differ in a detail not shown here. Identical values can stand only once.
Target: T1, LspPae (lipoprotein signal peptidase II from Pseudomonas aeruginosa) (Pseudomonas aeruginosa, UniProt Q9HVM5)
T1 construct: made in house
T1 sequence (Q9HVM5 1-169): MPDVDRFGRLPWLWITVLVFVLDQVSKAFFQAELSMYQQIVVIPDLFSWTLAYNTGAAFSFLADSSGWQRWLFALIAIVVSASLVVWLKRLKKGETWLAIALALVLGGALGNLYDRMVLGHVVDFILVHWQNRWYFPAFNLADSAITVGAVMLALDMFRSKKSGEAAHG
Test: FRET lipopeptide peptidase assay, LspPae
Type: biochemical
Details: for Rate (RFU/min) / Normalised rate (Vi/V0): replicates 1 and 2; for Ki: estimated Ki’ (apparent inhibition constant)
Description: FRET activity assays. A FRET based assay was developed using a labelled lipopeptide substrate (Supplementary Methods, Supplementary Fig. 3b) to directly monitor the protease activity of LspA. The optimised LspMrs assay buffer included 100 mM Tris/HCl pH 7.8, 150 mM NaCl and 0.09%(w/v) DDM. The corresponding optimized buffer for LspPae included 100 mM MES/NaOH pH 5.6, 150 mM NaCl and 0.05%(w/v) LMNG. All assays were performed at 37 °C.
Reaction mixtures were prepared by vortexing (Clifton, cyclone CM-1) for 2 s and incubated at 37 °C, 800 rpm for 10 to 30 min. […] For dose-response assays, the final DMSO concentration in all reactions was 10%(v/v). Reaction mixtures were pipetted into wells of a 96- (Thermo Scientific) or a 384-well plate (4titude®) and incubated for 10 min at 37 °C in a SpectraMax M3 or a SpectraMax M5e plate reader (Molecular devices) prior to starting the assay. Assays were initiated by adding enzyme to a final concentration in the range 10–300 nM. Total reaction mixture volume was 50 μL. Reactions were monitored by fluorescence (Ex/Em, 320 nm/420 nm) for 30 to 60 min at 37 °C. Initial rates were calculated from the fluorescence intensity versus time progress curves (Supplementary Figs. 5 and 6). Occasionally, lag periods in the progress curves were observed (Supplementary Discussion). In such cases, initial rates were calculated after the lag period had passed (typically 1–5 min) and a steady rate had been established. Dose-response plots to determine IC50 values were generated using Prism® 5 software from GraphPad.
It was possible to convert units of fluorescence change into moles of substrate consumed or products formed because pure products of LspA action on Abz-LALAGC*SS-nY-NH2 had been synthesized and were available. These were used to create a standard curve of fluorescence versus moles of the two products in equimolar amounts and to calculate specific activity values. […]
One consequence of LspMrs having a relatively low specific activity is that, in order to get a reliable signal in activity assays, it was necessary to raise enzyme concentration. For kinetic measurements generally, it is desirable to use an enzyme concentration that is much lower than that of the substrate. In this situation, the usual assumption that added and free substrate concentrations are equal is valid. At high enzyme concentrations [E] therefore, and especially in the case of tight ligand binding where the inhibition constant, Ki, is small, a measured IC50 is limited to [E]/2 4–6. In such circumstances, a meaningful IC50 or Ki can only be obtained with considerable effort. With a few exceptions in the current study, this situation prevailed with both LspA orthologs where IC50 values came close to [E]/2 (Table 1 and Supplementary Table 3, Supplementary Fig. 6). […]
Inhibition of LspA from E. coli by globomycin has been described as non-competitive7. The evidence provided in support o f this conclusion included an insensitivity of IC 50 to substrate concentration and the fact that the Vmax but not the K m changed with globomycin concentration. It was of interest to determine if a similar mode of inhibition applied to LspPae and LspMrs. From published work7–9 and from FRET-based kinetics measurements reported here, we know that globomycin binds with high affinity (Supplementary Fig. 6). Tight binding means that a more in-depth analysis must be carried out in order to identify inhibition type. For such analysis, it is important to know active enzyme concentration accurately. Fortunately, it was possible to use the property of tight inhibitor binding to measure the concentration of active enzyme ( Supplementary Fig. 18a). In the case of LspPae, the estimated value and the concentration determined spectroscopically agreed remarkably well. Parenthetically we note that knowing active LspPae concentration accurately enabled a characterization of the myxovirescin sample used in this study. Myxovirescin also binds tightly to LspA (Supplementary Fig. 6). […]

[1] = Suppl. Fig. 18b, [Myxovirescin] 0.02 μM
[2] = Suppl. Fig. 18b, [Myxovirescin] 0.05 μM
[3] = Suppl. Fig. 18b, [Myxovirescin] 0.08 μM
[4] = Suppl. Fig. 18b, [Myxovirescin] 0.1 μM
[5] = Suppl. Fig. 18b, [Myxovirescin] 0.12 μM
[6] = Suppl. Fig. 18b, [Myxovirescin] 0.15 μM
[7] = Suppl. Fig. 18b, [Myxovirescin] 0.25 μM
[8] = Suppl. Fig. 18c, [Myxovirescin] nominal conc. 0.02 μM, corrected conc. 0.01454 μM
[9] = Suppl. Fig. 18c, [Myxovirescin] nominal conc. 0.05 μM, corrected conc. 0.03635 μM
[10] = Suppl. Fig. 18c, [Myxovirescin] nominal conc. 0.08 μM, corrected conc. 0.05816 μM
[11] = Suppl. Fig. 18c, [Myxovirescin] nominal conc. 0.1 μM, corrected conc. 0.0727 μM
[12] = Suppl. Fig. 18c, [Myxovirescin] nominal conc. 0.12 μM, corrected conc. 0.08724 μM
[13] = Suppl. Fig. 18c, [Myxovirescin] nominal conc. 0.15 μM, corrected conc. 0.10905 μM
[14] = Suppl. Fig. 18c, [Myxovirescin] nominal conc. 0.25 μM, corrected conc. 0.18175 μM

CCCC1OC(=O)C(C)CC(C)CCCCC(=O)CCCC(CC)C=CC=C(COC)CCC(O)C(O)CC(O)CNC1=O (stereo not drawn) [myxovirescin, myxovirescin A1]
IC50 (IC50, 20 nM LspPae, substrate 5 µM): 9.76 nM and 12.3 nM
IC50 (IC50, 20 nM LspPae, substrate 7.5 µM): 10.4 nM and 12.9 nM
IC50 (IC50, 20 nM LspPae, substrate 10 µM): 11.1 nM and 14.4 nM
IC50 (IC50, 20 nM LspPae, substrate 15 µM): 8.51 nM and 11.1 nM
IC50 (IC50, 20 nM LspPae, substrate 20 µM): 9.14 nM and 13.9 nM
IC50 (IC50, 20 nM LspPae, substrate 30 µM): 11.4 nM and 13.8 nM
IC50 (IC50, FRET, 0.1 µM enzyme, 30 µM substrate, initial rates): 53 nM
IC50 (IC50, LspPae concentration 10 nM): 4.1 nM and 5 nM
IC50 (IC50, LspPae concentration 20 nM): 13.5 nM and 21.2 nM
IC50 (IC50, LspPae concentration 40 nM): 20.3 nM and 26.1 nM
IC50 (IC50, LspPae concentration 60 nM): 24.5 nM and 34.1 nM
IC50 (IC50, LspPae concentration 80 nM): 41.7 nM and 50.6 nM
IC50 (IC50, LspPae concentration 100 nM): 49.2 nM and 55.8 nM
Rate (RFU/min) (LspPae block, log [myxo] (uM) -0.82): 0.2 RFU/min
Rate (RFU/min) (LspPae block, log [myxo] (uM) -0.92): 0.1 RFU/min and 0.2 RFU/min
Rate (RFU/min) (LspPae block, log [myxo] (uM) -1.00): 0.1 RFU/min and 0.2 RFU/min
Rate (RFU/min) (LspPae block, log [myxo] (uM) -1.10): 1.3 RFU/min and 1.5 RFU/min
Rate (RFU/min) (LspPae block, log [myxo] (uM) -1.30): 5.8 RFU/min and 6.2 RFU/min
Rate (RFU/min) (LspPae block, log [myxo] (uM) -1.70): 10.2 RFU/min and 10.1 RFU/min
Rate (RFU/min) (LspPae block, log [myxo] (uM) -2.00): 11.4 RFU/min and 11.5 RFU/min
Normalised rate (Vi/V0) [1]: 0.8634 and 0.8943
Rate (RFU/min) [1]: 45.52 RFU/min and 45.67 RFU/min
Normalised rate (Vi/V0) [2]: 0.6591 and 0.6875
Rate (RFU/min) [2]: 34.75 RFU/min and 35.11 RFU/min
Normalised rate (Vi/V0) [3]: 0.4365 and 0.4511
Rate (RFU/min) [3]: 23.01 RFU/min and 23.04 RFU/min
Normalised rate (Vi/V0) [4]: 0.2771 and 0.2863
Rate (RFU/min) [4]: 14.61 RFU/min and 14.62 RFU/min
Normalised rate (Vi/V0) [5]: 0.09825 and 0.09947
Rate (RFU/min) [5]: 5.18 RFU/min and 5.08 RFU/min
Normalised rate (Vi/V0) [6]: 0.01309 and 0.02976
Rate (RFU/min) [6]: 0.69 RFU/min
Normalised rate (Vi/V0) [7]: 0.01574 and 0.02741
Rate (RFU/min) [7]: 0.83 RFU/min and 1.4 RFU/min
Normalised rate (Vi/V0) [8]: 0.8634 and 0.8943
Rate (RFU/min) [8]: 45.52 RFU/min and 45.67 RFU/min
Normalised rate (Vi/V0) [9]: 0.6591 and 0.6875
Rate (RFU/min) [9]: 34.75 RFU/min and 35.11 RFU/min
Normalised rate (Vi/V0) [10]: 0.4365 and 0.4511
Rate (RFU/min) [10]: 23.01 RFU/min and 23.04 RFU/min
Normalised rate (Vi/V0) [11]: 0.2771 and 0.2863
Rate (RFU/min) [11]: 14.61 RFU/min and 14.62 RFU/min
Normalised rate (Vi/V0) [12]: 0.09825 and 0.09947
Rate (RFU/min) [12]: 5.18 RFU/min and 5.08 RFU/min
Normalised rate (Vi/V0) [13]: 0.01309 and 0.02976
Rate (RFU/min) [13]: 0.69 RFU/min
Normalised rate (Vi/V0) [14]: 0.01574 and 0.02741
Rate (RFU/min) [14]: 0.83 RFU/min and 1.4 RFU/min
IC50 (average IC50, 20 nM LspPae, substrate 2.5 or 5 to 30 µM): ~10 nM
Ki (Morrison analysis, 30 µM substrate, 0.1 µM LspPae): 0.0476 ± 0.128 nM
Ki (from dependence of IC50 on enzyme concentration, IC50 = Ki’ + [E]/2): 2.69 ± 2.8 nM
